Laboratory results: paper PMC6152192, “Novel Methylselenoesters as Antiproliferative Agents” (Molecules : A Journal of Synthetic Chemistry and Natural …, 2017)

Assays:
MCF7 cells [1] = test: Cell death analysis (TUNEL, Apo-Direct kit, flow cytometry); format: cell-based; conditions: for dead cells: MCF7, 30 μM, TUNEL; for cell death time dependence: MCF7, time-course, 15 μM compound 5 or 30 μM compound 15, TUNEL
Procedure: Induction of cell death is the major aim of antitumor drugs. We analyzed cell death progression using the TUNEL technique (in the Apo-Direct kit), which is based on DNA fragmentation. MCF7 cells were treated with increasing concentrations of compounds 5 and 15 for 24 h or with 30 μM of compound 15 or 15 μM of compound 5 for different times. The negative control was treated with vehicle, and camptothecin (6 μM) was included as a positive control.
3 × 10^6 or 2 × 10^6 MCF7 cells were seeded in 25 cm^2 flasks for treatments up to 24 h or 48 h, respectively. DMSO (vehicle) or the dissolved compounds were added 24 h after seeding and cells were incubated for different times at 37 °C under 5% CO2. Cell cycle and cell death were analyzed simultaneously with the Apo-Direct kit (BD Pharmingen, Madrid, Spain), following the manufacturer’s protocol. Briefly, cells were fixed in 1% paraformaldehyde for 45 min at 0 °C, washed with PBS and incubated for at least 30 min in 70% ethanol on ice. Cells were then stained both with FITC-dUTP (1 h, 37 °C) and propidium iodide (30 min, room temperature) and analyzed by flow cytometry using a Coulter Epics XL cytometer (Beckman Coulter, Brea, CA, USA).
Figure 5 Cell death induction is dose and time-dependent for compound 15 in MCF7. MCF7 cells were treated with vehicle (control) or increasing doses of compound 5 or 15 for 24 h. For the time-course experiment, MCF7 cells were treated with vehicle (control), compound 5 (15 μM) or compound 15 (30 μM) for different times. Camptothecin (6 μM) was included as positive control. Cells were stained with the Apo-Direct kit (TUNEL assay) and analyzed by flow cytometry. (A) Dose-dependent cell death at 24 h; (B) Time-course analysis of cell death.

[2] = tested on: thioredoxin reductase (TrxR1); test: Thioredoxin reductase activity assay (NADPH consumption); format: biochemical; conditions: 100 nM TrxR1, 227 μM NADPH, TE buffer pH 8, 45 min
Procedure: The assay was performed as previously described, but in a final volume of 200 μL in a 96-well plate. Reaction started after addition of 133 μL of TE buffer (20 mM Tris, 2 mM EDTA, pH = 8), 0.227 mM NADPH (freshly prepared) to different concentrations of compounds solved in DMSO and TrxR1 (final concentration 100 nM). NADPH consumption was followed measuring absorbance decrease at 340 nm in a VersaMax microplate reader (Molecular Devices, Sunnyvale, CA, USA) over 45 min. A background sample with DMSO without the compounds was included and subtracted from the values.
Figure 7 Compounds 5 and 15 are substrates for thioredoxin reductase but not for the glutathione-glutaredoxin system. (A) NADPH consumption indicating reduction of compounds 5, 15 or MSA as control by thioredoxin reductase. The reaction mixture contained 100 nM TrxR1, 227 μM NADPH and the corresponding amount of compound in TE buffer (20 mM Tris, 2 mM EDTA pH = 8); (B) NADPH consumption indicating reduction of MSA by glutathione in the presence or absence of glutaredoxin. The reaction mixture contained the corresponding amount of compound, 0.1 M Tris, 2 mM EDTA pH = 8, 0.1 mg/mL BSA, 1 mM GSH, 200 μM NADPH, 0.008 OD/mL yeast GR and 1 μM hGrx1 when required. Only results for MSA are shown, as compounds 5 and 15 were not reduced.

MCF7 cells [3] = test: Caspase and autophagy inhibitors assay (Z-VAD-FMK, wortmannin; TUNEL); format: cell-based; conditions: MCF7, 50 μM Z-VAD-FMK 1 h pre-incubation, compound 5 25 μM or compound 15 30 μM, 48 h
Procedure: Se compounds induce different types of cell death, among which apoptosis and autophagy are the most common. To further elucidate the pathway through which compounds 5 and 15 trigger cell death, we used Z-VAD-FMK, a pan-caspase inhibitor and wortmannin, a PI3K inhibitor which blocks autophagy. MCF7 cells were pre-incubated for 1 h with 50 μM of Z-VAD-FMK or 100 nM wortmannin and co-incubated with compound 5 (25 μM), compound 15 (30 μM) or vehicle (control) for 48 h. Treated cells without inhibitors were also included.
2 × 10^6 MCF7 cells were seeded in 25 cm^2 flasks. After 24 h, cells were pre-treated with 50 μM of the pan-caspase inhibitor Z-VAD-FMK (BD Pharmingen) or 100 nM wortmannin (Santa Cruz Biotechnology, Heidelberg, Germany) for 1 h before co-incubating them with 25 μM of compound 5, 30 μM of compound 15 or vehicle (maximum amount of DMSO used in the treatments) for 48 h. Cells were collected and processed with the Apo-Direct kit as described previously.
Figure 6 Cell death induced by compounds 5 and 15 involves the caspases pathway. MCF7 cells were pre-incubated with 50 μM of Z-VAD-FMK or 100 nM wortmannin for 1 h before treating cells with compound 5 (25 μM), compound 15 (30 μM) or vehicle (control) for 48 h. Cells were stained with the Apo-Direct kit (TUNEL assay) and analyzed by flow cytometry. […]

Substance	dead cells (MCF7 cells [1]; 4 h) [%]	dead cells (MCF7 cells [1]; 48 h) [%]	cell death time dependence (MCF7 cells [1])	reduction by TrxR1 (NADPH consumption) [2]	decrease of cell death in the presence of the pan-caspase inhibitor Z-VAD-FMK (MCF7 cells [3]) [%]
Dimethyl 2,5-furandicarboselenoate [Compound 15]	20	80	caused cell death in a time-dependent manner	substrates only for TrxR1	14
Methyl 3-chlorothiophen-2-carboselenoate [Compound 5]			highest values of cell death for compound 5 were observed after 4 h treatment	substrates only for TrxR1	36
